Laboratory results reported in US6555356B2, “Methods for microbial regulation” (Unisearch Limited, priority 1995, dated 2003).
Values after ≈ are worked out from the molar mass of the structure shown.

Key:
Type in all cases: cell-based
[1] = test system: Helminthosporium sp.; test: Fungal growth inhibition zone assay, Helminthosporium sp.
Experimental: (§1) In addition to the tests described above, the effects of selected compounds of the general formula 2 on growth of bacteria, one yeast (Candida albicans) and one fungus (Helminthosporium sp.) were assessed. Bacteria were grown in liquid media in the presence of different concentrations of furanones and growth measured via changes in optical density (OD). Fungal assays were done by inoculating agar plates with spores. These plates contained different concentrations of furanone compounds in wells within the plates. Zones of inhibition around these wells were measured after 48 hours.

[2] = test system: Candida albicans; test: Fungal growth inhibition zone assay, Candida albicans
Experimental: as §1

[3] = test system: strain R86; test: Marine isolate swimming, strain R86
[4] = test system: strain R130; test: Marine isolate swarming, strain R130
Experimental: (§2) Serratia liquefaciens was grown in liquid LB medium at room temperature to an optical density of 0.3 at 450 nm and stable inoculated onto LB agar (0.7% agar) plates. Plates were incubated at 30° C. and observed regularly for swarming behaviour. The effect on swarming of furanone compounds was tested by adding (after sterilisation and cooling of the agar) compounds 1-13 (FIG. 3). in the concentration range of 5-100 μg/ml, to the plates.
(§3) Methods followed those described for Serratia liquefaciens (above). Inhibition of growth of these bacteria by furanones was assessed as above.

[5] = test system: strain V21; test: Marine isolate swimming, strain V21
[6] = test system: Vibrio fisheri; test: Growth of Vibrio fisheri
Experimental: (§4) The effect on growth of Serratia liquefaciens by furanone compounds was also measured in liquid LB medium by comparing growth of cultures without the addition of compounds versus growth of cultures with added furanone compounds (100 μg/ml of compounds 1-13 (FIG. 3) in separate cultures). Growth was measured as optical density at 450 nm and followed over a 48 hr period.
(§5) Initial assays for both strains of Vibrio were streaked onto LB agar plates (with 2% NaCl) with and without furanone compounds 1-4 at 5-100 μg/ml. Bioluminescence of the plates was visually assessed after 24 hours of incubation at room temperature. In subsequent assays, both strains were grown in liquid culture in the presence of furanones. Bioluminescence was assayed via a luminometer. The effects of furanones on growth of both strains were assayed as above.

[7] = test system: strain V55; test: Marine isolate swarming, strain V55
Experimental: as §2, §3

[8] = test system: Vibrio harveyi; test: Vibrio harveyi bioluminescence assay; details: 100 μg/ml, visual inspection of agar plates
Experimental: as §5

[9] = test system: strain R86; test: Marine isolate swarming, strain R86
Experimental: as §2, §3

[10] = test system: Serratia liquefaciens; test: Growth of Serratia liquefaciens in liquid LB medium; details: 100 μg/ml
Experimental: as §4

[11] = test system: Chromobacterium violencia; test: Growth of Chromobacterium violencia; details: 100 μg/ml
Experimental: as §4
(§6) A mutant of Chromobacterium violencia negative for the HSL auto inducer was used in the assay. The strain was pour plated in LB medium at high density and wells were punched after the media had set. Sterile, filtered supernatants from various HSL producing strains were added to the wells. Plates were incubated at 30° C. and observed for the formation of purple zones (due to […]) around the wells. The effects of furanone compounds 1 and 2 (FIG. 3) were assessed by running this assay on plates of LB medium containing furanone compounds at a concentration of 100 μg/ml. The effects of the compounds on growth of Chromobacterium were assessed as above.

[12] = test system: strain R12; test: Marine isolate swimming, strain R12
[13] = test system: Pseudomonas aeruginosa; test: Pseudomonas aeruginosa (elastase) assay; details: 100 μg/ml in elastin agar
Experimental: (§7) Inoculants from precultures were streaked onto Peptone-Tryptic Soy Broth agar containing 0.3% elastin. Plates were incubated at 37° C. and observed for hydrolysis of the elastin. The effect of furanone compounds was assess by adding compounds 1-4 (100 μg/ml) to the plates and comparing zones of hydrolysis in plates with and without the compounds.

[14] = test system: strain V54; test: Marine isolate swarming, strain V54
Experimental: as §2, §3

[15] = test system: Vibrio fisheri; test: Vibrio fisheri bioluminescence assay; details: 100 μg/ml, visual inspection of agar plates
Experimental: as §5

[16] = test system: strain R12; test: Marine isolate swarming, strain R12
Experimental: as §2, §3

[17] = test system: strain V21; test: Marine isolate swarming, strain V21
Experimental: as §2, §3

[18] = test system: strain V55; test: Marine isolate swimming, strain V55
[19] = test system: strain R12; test: Marine isolate growth in liquid media, strain R12
Experimental: as §4, §3

[20] = test system: Vibrio harveyi; test: Growth of Vibrio harveyi
Experimental: as §4, §5

[21] = test system: strain V54; test: Marine isolate swimming, strain V54
[22] = test system: strain R86; test: Marine isolate growth in liquid media, strain R86
Experimental: as §4, §3

[23] = test system: strain V55; test: Marine isolate growth in liquid media, strain V55
Experimental: as §4, §3

[24] = test system: Chromobacterium violencia mutant negative for the HSL auto inducer; test: Chromobacterium violencia (indigo) assay; details: for Effect on HSL phenotype: indigo formation: Chromobacterium violencia, 100 μg/ml; for Stimulation of indigo production by the compound itself: indigo negative Chromobacterium violencia mutant, addition of compound
Experimental: as §6

[25] = test system: strain V21; test: Marine isolate growth in liquid media, strain V21
Experimental: as §4, §3

[26] = test system: Serratia liquefaciens; test: Serratia liquefaciens swarming assay; details: 5-100 μg/ml in LB agar (0.7%) plates
Experimental: as §2

[27] = test system: strain V54; test: Marine isolate growth in liquid media, strain V54
Experimental: as §4, §3

[28] = test system: strain R130; test: Marine isolate swimming, strain R130
[29] = test system: strain R130; test: Marine isolate growth in liquid media, strain R130
Experimental: as §4, §3

[30] = test system: Pseudomonas aeruginosa; test: Growth of Pseudomonas aeruginosa on plates; details: 100 μg/ml
Experimental: as §7

SMILES: C[C@@H]1[C@H](O)[C@@H](C)/C=C/C=C/C=C/C=C/C=C/C=C/C=C/[C@H](O[C@@H]2O[C@H](C)[C@@H](O)[C@H](N)[C@@H]2O)C[C@@H]2O[C@](O)(C[C@@H](O)C[C@@H](O)[C@H](O)CC[C@@H](O)C[C@@H](O)CC(=O)O[C@H]1C)C[C@H](O)[C@H]2C(=O)O [Amphotericin B, reference compound]
- width of inhibition zone ([1]; amount added 0.1 μg): 2 mm
- width of inhibition zone ([1]; amount added 1 μg): 6 mm
- width of inhibition zone ([1]; amount added 10 μg): 6-8 mm
- width of inhibition zone ([1]; amount added 100 μg): 7-10 mm
- width of inhibition zone ([2]; amount added 0.1 μg): 2-4 mm
- width of inhibition zone ([2]; amount added 1 μg): 5-7 mm
- width of inhibition zone ([2]; amount added 10 μg): 6-10 mm
- width of inhibition zone ([2]; amount added 100 μg): 1.14 mm

SMILES: CCCCC1=C(Br)C(=C(Br)Br)OC1=O [Compound 1]
- Minimum inhibitory concentration, Swimming [3]: 50 µg/mL (≈ 129 µM)
- Minimum inhibitory concentration, Swarming [4]: 25 µg/mL (≈ 64.3 µM)
- Minimum inhibitory concentration, Swimming [5]: 25 µg/mL (≈ 64.3 µM)
- Effect on bacterial growth [6]: no effect
- Minimum inhibitory concentration, Swarming [7]: 5 µg/mL (≈ 12.9 µM)
- Effect on HSL phenotype: luminescence [8]: inhibit
- Minimum inhibitory concentration, Swarming [9]: 25 µg/mL (≈ 64.3 µM)
- Effect on bacterial growth [10]: no effect
- Effect on bacterial growth [11]: no effect
- Minimum inhibitory concentration, Swimming [12]: >50 µg/mL
- width of inhibition zone ([1]; amount added 0.1 μg): 0 mm
- width of inhibition zone ([1]; amount added 1 μg): 0 mm
- width of inhibition zone ([1]; amount added 10 μg): 2-5 mm
- width of inhibition zone ([1]; amount added 100 μg): 20 mm
- Effect on HSL phenotype: elastase [13]: stimulated
- Minimum inhibitory concentration, Swarming [14]: 25 µg/mL (≈ 64.3 µM)
- Effect on HSL phenotype: luminescence [15]: inhibit
- width of inhibition zone ([2]; amount added 0.1 μg): 0 mm
- width of inhibition zone ([2]; amount added 1 μg): 0 mm
- width of inhibition zone ([2]; amount added 10 μg): 0 mm
- width of inhibition zone ([2]; amount added 100 μg): 1-2 mm
- Minimum inhibitory concentration, Swarming [16]: 5 µg/mL (≈ 12.9 µM)
- Minimum inhibitory concentration, Swarming [17]: 5 µg/mL (≈ 12.9 µM)
- Minimum inhibitory concentration, Swimming [18]: 5 µg/mL (≈ 12.9 µM)
- Minimum inhibitory concentration, Growth [19]: >50 µg/mL
- Effect on bacterial growth [20]: no effect
- Minimum inhibitory concentration, Swimming [21]: 5 µg/mL (≈ 12.9 µM)
- Minimum inhibitory concentration, Growth [22]: >50 µg/mL
- Minimum inhibitory concentration, Growth [23]: >50 µg/mL
- Effect on HSL phenotype: indigo formation [24]: inhibit
- Stimulation of indigo production by the compound itself [24]: do not stimulate
- Minimum inhibitory concentration, Growth [25]: 25 µg/mL (≈ 64.3 µM)
- Effect on HSL phenotype: swarming [26]: inhibit
- Minimum inhibitory concentration, Growth [27]: >50 µg/mL
- Minimum inhibitory concentration, Swimming [28]: >50 µg/mL
- Minimum inhibitory concentration, Growth [29]: >50 µg/mL

SMILES: CCCCC1=C(Br)C(=CBr)OC1=O [Compound 2]
- Minimum inhibitory concentration, Swimming [3]: >50 µg/mL
- Minimum inhibitory concentration, Swarming [4]: 25 µg/mL (≈ 80.6 µM)
- Minimum inhibitory concentration, Swimming [5]: 25 µg/mL (≈ 80.6 µM)
- Effect on bacterial growth [6]: no effect
- Minimum inhibitory concentration, Swarming [7]: 5 µg/mL (≈ 16.1 µM)
- Effect on HSL phenotype: luminescence [8]: inhibit
- Minimum inhibitory concentration, Swarming [9]: 5 µg/mL (≈ 16.1 µM)
- Effect on bacterial growth [30]: no detectable effect
- Effect on bacterial growth [10]: no effect
- Effect on bacterial growth [11]: no effect
- Minimum inhibitory concentration, Swimming [12]: >50 µg/mL
- width of inhibition zone ([1]; amount added 0.1 μg): 0 mm
- width of inhibition zone ([1]; amount added 1 μg): 0 mm
- width of inhibition zone ([1]; amount added 10 μg): 2-4 mm
- width of inhibition zone ([1]; amount added 100 μg): 20 mm
- Effect on HSL phenotype: elastase [13]: stimulated
- Minimum inhibitory concentration, Swarming [14]: 5 µg/mL (≈ 16.1 µM)
- Effect on HSL phenotype: luminescence [15]: inhibit
- width of inhibition zone ([2]; amount added 0.1 μg): 0 mm
- width of inhibition zone ([2]; amount added 1 μg): 0 mm
- width of inhibition zone ([2]; amount added 10 μg): 0 mm
- width of inhibition zone ([2]; amount added 100 μg): 2-3 mm
- Minimum inhibitory concentration, Swarming [16]: 5 µg/mL (≈ 16.1 µM)
- Minimum inhibitory concentration, Swarming [17]: 5 µg/mL (≈ 16.1 µM)
- Minimum inhibitory concentration, Swimming [18]: 5 µg/mL (≈ 16.1 µM)
- Minimum inhibitory concentration, Growth [19]: >50 µg/mL
- Effect on bacterial growth [20]: no effect
- Minimum inhibitory concentration, Swimming [21]: 5 µg/mL (≈ 16.1 µM)
- Minimum inhibitory concentration, Growth [22]: >50 µg/mL
- Minimum inhibitory concentration, Growth [23]: >50 µg/mL
- Effect on HSL phenotype: indigo formation [24]: inhibit
- Stimulation of indigo production by the compound itself [24]: do not stimulate
- Minimum inhibitory concentration, Growth [25]: 25 µg/mL (≈ 80.6 µM)
- Effect on HSL phenotype: swarming [26]: inhibit
- Minimum inhibitory concentration, Growth [27]: >50 µg/mL
- Minimum inhibitory concentration, Swimming [28]: >50 µg/mL
- Minimum inhibitory concentration, Growth [29]: >50 µg/mL

SMILES: CCCC(OC(C)=O)C1=C(Br)C(=CI)OC1=O (stereo not drawn) [Compound 5]
- width of inhibition zone ([1]; amount added 0.1 μg): 0 mm
- width of inhibition zone ([1]; amount added 1 μg): 2-4 mm
- width of inhibition zone ([1]; amount added 10 μg): 9-13 mm
- width of inhibition zone ([1]; amount added 100 μg): 20 mm
- width of inhibition zone ([2]; amount added 0.1 μg): 0 mm
- width of inhibition zone ([2]; amount added 1 μg): 0 mm
- width of inhibition zone ([2]; amount added 10 μg): 1 mm
- width of inhibition zone ([2]; amount added 100 μg): 3-8 mm

SMILES: CCCCC1=CC(=C(Br)Br)OC1=O [Compound 8]
- width of inhibition zone ([1]; amount added 0.1 μg): 0 mm
- width of inhibition zone ([1]; amount added 1 μg): 0 mm
- width of inhibition zone ([1]; amount added 10 μg): 0 mm
- width of inhibition zone ([1]; amount added 100 μg): 20 mm
- width of inhibition zone ([2]; amount added 0.1 μg): 0 mm
- width of inhibition zone ([2]; amount added 1 μg): 0 mm
- width of inhibition zone ([2]; amount added 10 μg): 0 mm
- width of inhibition zone ([2]; amount added 100 μg): 0 mm

SMILES: CCCCCCC1=CC(=C(Br)Br)OC1=O [Compound 13]
- width of inhibition zone ([1]; amount added 0.1 μg): 0 mm
- width of inhibition zone ([1]; amount added 1 μg): 0 mm
- width of inhibition zone ([1]; amount added 10 μg): 0 mm
- width of inhibition zone ([1]; amount added 100 μg): 0 mm
- width of inhibition zone ([2]; amount added 0.1 μg): 0 mm
- width of inhibition zone ([2]; amount added 1 μg): 0 mm
- width of inhibition zone ([2]; amount added 10 μg): 0 mm
- width of inhibition zone ([2]; amount added 100 μg): 1 mm
